Measurements published in patent US8124793B2, “Derivatives of ethylene methanedisulfonate as cancer chemotherapeutic agents” (priority 2007, dated 2012).

Assays:
Type in all cases: cell-based
MOLT-4 = assay: NCI screen, growth of human tumor cells: Leukemia MOLT-4; settings: MOLT-4 (Leukemia), 10^−4 molar
How it was run: (§1)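 Growth of human tumor cells, expressed as percent, was determined in the NCI screen. Test data list the cancer type and the molar concentration applied.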

SR = assay: NCI screen, growth of human tumor cells: Leukemia SR; settings: SR (Leukemia), 10^−4 molar
How it was run: as §1

EKVX = assay: NCI screen, growth of human tumor cells: Non-Small Cell Lung EKVX; settings: EKVX, 10^−4 molar
How it was run: as §1

HOP-62 = assay: NCI screen, growth of human tumor cells: Non-Small Cell Lung HOP-62; settings: HOP-62, 10^−4 molar
How it was run: as §1

NCI-H226 = assay: NCI screen, growth of human tumor cells: Non-Small Cell Lung NCI-H226; settings: NCI-H226 (Non-Small Cell Lung), 10^−4 molar
How it was run: as §1

NCI-H522 = assay: NCI screen, growth of human tumor cells: Non-Small Cell Lung NCI-H522; settings: NCI-H522, 10^−4 molar
How it was run: as §1

NCI-H322M = assay: NCI screen, growth of human tumor cells: Non-Small Cell Lung NCI-H322M; settings: NCI-H322M, 10^−4 molar
How it was run: as §1

HCC-2998 = assay: NCI screen, growth of human tumor cells: HCC-2998 (listed under Non-Small Cell Lung); settings: HCC-2998, 10^−4 molar
How it was run: as §1

COLO205 = assay: NCI screen, growth of human tumor cells: Colon Cancer COLO205; settings: COLO205, 10^−4 molar
How it was run: as §1

HCT-15 = assay: NCI screen, growth of human tumor cells: Colon Cancer HCT-15; settings: HCT-15 (Colon Cancer), 10^−4 molar
How it was run: as §1

KM12 = assay: NCI screen, growth of human tumor cells: Colon Cancer KM12; settings: KM12, 10^−4 molar
How it was run: as §1

SF-268 = assay: NCI screen, growth of human tumor cells: CNS Cancer SF-268; settings: SF-268 (CNS Cancer), 10^−4 molar
How it was run: as §1

SF-295 = assay: NCI screen, growth of human tumor cells: CNS Cancer SF-295; settings: SF-295 (CNS Cancer), 10^−4 molar
How it was run: as §1

SNB-19 = assay: NCI screen, growth of human tumor cells: CNS Cancer SNB-19; settings: SNB-19 (CNS Cancer), 10^−4 molar
How it was run: as §1

SF-539 = assay: NCI screen, growth of human tumor cells: CNS Cancer SF-539; settings: SF-539 (CNS Cancer), 10^−4 molar
How it was run: as §1

SNB-75 = assay: NCI screen, growth of human tumor cells: CNS Cancer SNB-75; settings: SNB-75, 10^−4 molar
How it was run: as §1

U-251 = assay: NCI screen, growth of human tumor cells: CNS Cancer U-251; settings: U-251 (CNS Cancer), 10^−4 molar
How it was run: as §1

LOXIMVI = assay: NCI screen, growth of human tumor cells: Melanoma LOXIMVI; settings: LOXIMVI (Melanoma), 10^−4 molar
How it was run: as §1

SK-MEL-2 = assay: NCI screen, growth of human tumor cells: Melanoma SK-MEL-2; settings: SK-MEL-2, 10^−4 molar
How it was run: as §1

SK-MEL-5 = assay: NCI screen, growth of human tumor cells: Melanoma SK-MEL-5; settings: SK-MEL-5 (Melanoma), 10^−4 molar
How it was run: as §1

UACC-257 = assay: NCI screen, growth of human tumor cells: Melanoma UACC-257; settings: UACC-257, 10^−4 molar
How it was run: as §1

UACC-62 = assay: NCI screen, growth of human tumor cells: Melanoma UACC-62; settings: UACC-62, 10^−4 molar
How it was run: as §1

IGROVI = assay: NCI screen, growth of human tumor cells: Ovarian Cancer IGROVI; settings: IGROVI, 10^−4 molar
How it was run: as §1

OVCAR-3 = assay: NCI screen, growth of human tumor cells: Ovarian Cancer OVCAR-3; settings: OVCAR-3, 10^−4 molar
How it was run: as §1

OVCAR-4 = assay: NCI screen, growth of human tumor cells: Ovarian Cancer OVCAR-4; settings: OVCAR-4, 10^−4 molar
How it was run: as §1

OVCAR-5 = assay: NCI screen, growth of human tumor cells: Ovarian Cancer OVCAR-5; settings: OVCAR-5, 10^−4 molar
How it was run: as §1

OVCAR-8 = assay: NCI screen, growth of human tumor cells: Ovarian Cancer OVCAR-8; settings: OVCAR-8 (Ovarian Cancer), 10^−4 molar
How it was run: as §1

ACHN = assay: NCI screen, growth of human tumor cells: Renal Cancer ACHN; settings: ACHN, 10^−4 molar
How it was run: as §1

SN12C = assay: NCI screen, growth of human tumor cells: Renal Cancer SN12C; settings: SN12C, 10^−4 molar
How it was run: as §1

CAKI-1 = assay: NCI screen, growth of human tumor cells: Renal Cancer CAKI-1; settings: CAKI-1 (Renal Cancer), 10^−4 molar
How it was run: as §1

UO-31 = assay: NCI screen, growth of human tumor cells: Renal Cancer UO-31; settings: UO-31, 10^−4 molar
How it was run: as §1

DU-145 = assay: NCI screen, growth of human tumor cells: Prostate Cancer DU-145; settings: DV-145, 10^−4 molar
How it was run: as §1

MCF 7 = assay: NCI screen, growth of human tumor cells: Breast Cancer MCF 7; settings: MCF 7 (Breast Cancer), 10^−4 molar
How it was run: as §1

MDA-MB-231/ATCC = assay: NCI screen, growth of human tumor cells: Breast Cancer MDA-MB-231/ATCC; settings: MDA-MB-231/ATCC (Breast Cancer), 10^−4 molar
How it was run: as §1

human cancer cells = assay: NCI screen summary over the cancers tested (negative growth of human cancer cells); settings: 10^−4 M conc.; cancers with negative growth / cancers tested
Method: In the NCI screening process, each compound was tested and described by a minimum of 60 data points. The test data include, but are not limited to the type of cancer, the molar concentration used in the screen, and the percent growth of the cancer. In some cases, NMR and elemental analysis were used for structural assignment.
The derivatives in the tables are grouped using the same category as in the tables 1-6.

Compound: CC1(C)OCC(COC(=O)C(=O)C2(Cc3ccc4c(c3)C(=O)c3ccccc3C4=O)S(=O)(=O)OCCOS2(=O)=O)O1 (centres unmarked) [NSC 737276]
- percent of growth of human tumor cells (MOLT-4): −26%
- percent of growth of human tumor cells (SR): 12%
- % Growth (EKVX): −81%
- % Growth (HOP-62): −84%
- percent of growth of human tumor cells (NCI-H226): 10%
- % Growth (NCI-H522): −91%
- % Growth (NCI-H322M): −87%
- % Growth (HCC-2998): −96%
- % Growth (COLO205): −96%
- percent of growth of human tumor cells (HCT-15): −12%
- % Growth (KM12): −74%
- percent of growth of human tumor cells (SF-268): −40%
- percent of growth of human tumor cells (SF-295): −12%
- percent of growth of human tumor cells (SNB-19): −59%
- percent of growth of human tumor cells (SF-539): −43%
- % Growth (SNB-75): −87%
- percent of growth of human tumor cells (U-251): −53%
- percent of growth of human tumor cells (LOXIMVI): −48%
- % Growth (SK-MEL-2): −62%
- percent of growth of human tumor cells (SK-MEL-5): −4%
- % Growth (UACC-257): −76%
- % Growth (UACC-62): −91%
- % Growth (IGROVI): −70%
- % Growth (OVCAR-3): −71%
- % Growth (OVCAR-4): −73%
- % Growth (OVCAR-5): −89%
- percent of growth of human tumor cells (OVCAR-8): 5%
- % Growth (ACHN): −82%
- % Growth (SN12C): −64%
- percent of growth of human tumor cells (CAKI-1): 15%
- % Growth (UO-31): −81%
- % Growth (DU-145): −81%
- percent of growth of human tumor cells (MCF 7): −59%
- percent of growth of human tumor cells (MDA-MB-231/ATCC): −9%
- Percentage of cancers showing negative growth cancers tested (human cancer cells): 10^−4 M conc. = 49/55 = 89%
